Each block holds one compound with its values, some of them ahead of it.
Legend:
COX-2 [1] = test system: COX-2; parameters: method as in PMID 18598017; settings: in vitro; cited from earlier work
[2] = parameters: method as in PMID 18598017; settings: previous study; cited from earlier work
[3] = Ex vivo biodistribution kinetic profile in healthy rats; parameters: species or system Sprague Dawley rats
Description: Nine SD rats were injected through the tail vein with 9.25 ± 2.5 MBq of ^11C-VA426 and euthanized under general anaesthesia, with a mixture of 4% isoflurane in air, at different time points (10, 30, and 60 minutes) from injection (n = 3 per time). Blood was collected by retro-orbital sampling immediately before the sacrifice. Plasma was separated by centrifugation, and 100 μL of blood and plasma were counted in a γ-counter (LKB Compugamma CS 1282). Peripheral organs (heart, lung, liver, intestine, kidney, testis, and muscle) and brain regions (frontal, right and left cortex, right and left striatum, hippocampus, thalamus, hypothalamus, pons, and cerebellum) were immediately removed and rinsed in cold saline solution. Each sample was then placed in a test tube and weighed, and the radioactivity was measured using a γ-counter (LKB Compugamma CS 1282). An additional aliquot (0.1 mL) of radioactive solution was diluted to 1 : 10, 1 : 100, and 1 : 1000 and used to calculate the standard curve. Radioactivity concentration was calculated as the percentage of injected dose per gram of tissue (%ID/g).

COX-2 [4] = biological target: T1, COX-2 (Rattus norvegicus, UniProt P35355); assay: Specificity (celecoxib competition) study in healthy rats; assay type: in vivo, Sprague Dawley rats; settings: 30 min p.i.
T1 construct: from tissue; host or cells: peripheral organs and brain regions of Sprague Dawley rats (in vivo / ex vivo biodistribution)
T1 sequence (P35355 18-604): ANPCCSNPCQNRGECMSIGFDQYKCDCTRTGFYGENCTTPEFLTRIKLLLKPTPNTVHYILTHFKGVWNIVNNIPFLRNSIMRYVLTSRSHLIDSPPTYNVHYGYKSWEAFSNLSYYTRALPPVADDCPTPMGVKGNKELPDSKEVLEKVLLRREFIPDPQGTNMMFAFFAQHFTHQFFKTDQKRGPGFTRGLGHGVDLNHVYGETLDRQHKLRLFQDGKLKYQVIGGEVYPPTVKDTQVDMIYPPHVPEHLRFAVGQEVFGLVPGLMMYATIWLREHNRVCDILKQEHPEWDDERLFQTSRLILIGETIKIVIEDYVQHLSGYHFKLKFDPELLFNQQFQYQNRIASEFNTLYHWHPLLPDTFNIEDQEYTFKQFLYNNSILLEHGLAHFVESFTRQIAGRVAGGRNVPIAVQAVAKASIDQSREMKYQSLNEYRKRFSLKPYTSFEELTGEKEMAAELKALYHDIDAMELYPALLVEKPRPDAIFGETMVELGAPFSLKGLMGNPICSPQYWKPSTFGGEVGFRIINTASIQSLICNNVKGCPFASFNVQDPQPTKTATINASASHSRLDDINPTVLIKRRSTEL
Description: In order to evaluate the radiotracer binding specificity to COX-2 in healthy rats, a competition study was performed. Two minutes before the intravenous injection of ^11C-VA426, four animals were pretreated with the COX-2 specific inhibitor celecoxib (Sigma-Aldrich, Italy) (10 mg/kg, i.v.) and four animals with vehicle solution alone (100 μl of DMSO, Sigma-Aldrich). All rats were then injected intravenously with 9.25 ± 2.7 MBq of ^11C-VA426 and sacrificed at the time of maximum uptake (30 minutes p.i.), previously assessed in the kinetic study. Central and peripheral samples were dissected as described above and counted, following the same protocol used for the biodistribution kinetic study. Radioactivity concentration in samples was calculated as %ID/g.

COX-2 [5] = biological target: T1, COX-2; assay: Biodistribution kinetic profile in brain inflammation (intrastriatal LPS) rat model; assay type: in vivo, Sprague Dawley rats; settings: rats
Description: In order to trigger nigrostriatal inflammation, eighteen SD rats were anesthetized (zoletil, 25 mg/kg, i.p.) and stereotaxically injected into the right striatum with 3 μL (3.33 μg/μl) of lipopolysaccharide (LPS, Sigma-Aldrich, Italy) and in the contralateral hemisphere with saline (negative control) at the following coordinates: A = +0.5, L = ±3.0, and V = –5.0 mm. One day after LPS injection, the first experimental group (n = 9) was injected through the tail vein with 9.25 ± 2.2 MBq of ^11C-VA426, and three rats per time point (10, 30, and 60 minutes) were euthanized under general anaesthesia, with a mixture of 4% isoflurane in air. Central and peripheral samples were dissected as described above and counted, following the protocol described for the biodistribution kinetic study. Twelve days after LPS injection, the second group of animals (n = 9) underwent the same protocol. Radioactivity concentration in samples was calculated as %ID/g.

[6] = Ex vivo biodistribution kinetic profile in healthy mice; parameters: species or system CD-1 mice; settings: i.v.
Description: Male CD-1 mice were injected through the tail vein with 5.3 ± 1.4 MBq of ^11C-VA426 and sacrificed after 10, 30, and 60 minutes (n = 3 per time point) under general anaesthesia with a mixture of 4% isoflurane in air. Blood was collected by retro-orbital sampling immediately before sacrifice. Plasma was separated by centrifugation, and 100 μL of blood and plasma were counted in a γ-counter (LKB Compugamma CS 1282). Different peripheral organs (heart, lung, liver, intestine, stomach, spleen, kidney, testis, and muscle) and brain regions (cortex, striatum, hippocampus, thalamus, hypothalamus, pons, substantia nigra, and cerebellum) were immediately sampled, rinsed with cold saline, and placed in preweighed tubes for counting. Radioactivity concentration was calculated as %ID/g.

COX-2 [7] = biological target: T2, COX-2 (Mus musculus, UniProt Q05769); assay: PET kinetic study in healthy mice; assay type: in vivo, CD-1 mice
T2 construct: from tissue; host or cells: organs of living mice (PET in healthy CD-1 mice)
T2 sequence (Q05769 18-604): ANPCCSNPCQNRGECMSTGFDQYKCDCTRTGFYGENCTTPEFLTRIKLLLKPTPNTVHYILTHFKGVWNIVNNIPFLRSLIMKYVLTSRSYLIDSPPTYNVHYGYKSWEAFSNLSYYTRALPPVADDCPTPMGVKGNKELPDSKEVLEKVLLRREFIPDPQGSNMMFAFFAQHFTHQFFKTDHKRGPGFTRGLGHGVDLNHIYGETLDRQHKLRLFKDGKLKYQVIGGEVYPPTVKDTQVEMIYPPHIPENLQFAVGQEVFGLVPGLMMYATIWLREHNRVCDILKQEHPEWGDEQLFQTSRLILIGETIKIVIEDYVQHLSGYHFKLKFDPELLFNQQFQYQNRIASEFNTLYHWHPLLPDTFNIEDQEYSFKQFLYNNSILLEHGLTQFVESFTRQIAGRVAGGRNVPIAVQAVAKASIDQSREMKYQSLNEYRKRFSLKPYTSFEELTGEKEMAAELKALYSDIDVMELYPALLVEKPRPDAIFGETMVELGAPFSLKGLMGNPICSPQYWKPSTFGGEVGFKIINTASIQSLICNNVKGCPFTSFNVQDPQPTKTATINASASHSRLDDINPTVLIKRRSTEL
Description: Two CD-1 mice were anaesthetized with a mixture of 4% isoflurane in air for the imaging with the YAP-(S)PET system (ISE Srl). Each mouse was placed in a prone position on the PET scanner bed with the abdomen centred in the field of view (FOV). Five minutes before the intravenous injection of ^11C-VA426, one mouse was pretreated with the COX-2 specific inhibitor celecoxib (10 mg/kg, i.v.) in vehicle (100 μl of DMSO, mouse 1) and the other with vehicle alone (mouse 2). Mouse 1 was then injected intravenously with 1.85 MBq of ^11C-VA426 and mouse 2 with 3.7 MBq, and dynamic PET data were acquired for 30 minutes, according to the following schedule: four scans of 2.5 minutes followed by four of 5 minutes. PET data were acquired in list mode, using the full axial acceptance angle of the scanner (3D mode) and then reconstructed with the expectation maximization (EM) algorithm. All images were calibrated with a dedicated phantom, corrected for the radionuclide half-life decay, and quantified as ID/g.

COX-2 [8] = biological target: T2, COX-2; assay: Specificity evaluation in peripheral inflammation (i.p. LPS) mouse model; assay type: in vivo; settings: LPS-treated mice, celecoxib 10 mg/kg i.v., 10 minutes p.i.
Description: Specificity evaluation studies of ^11C-VA426 were performed on a murine model of peripheral inflammation, after COX-2 specific inhibitor administration. Six hours before the study, six mice received intraperitoneal injection of lipopolysaccharide (10 mg/Kg), in order to promote peripheral inflammation response. Three of the LPS-treated mice were injected i.v. with 10 mg/kg of celecoxib, five minutes before the ^11C-VA426 injection, to carry out a competition assay for the COX-2 binding sites. All mice were sacrificed at the time of maximum uptake (10 minutes p.i.), previously assessed in healthy mice, after 3.9 ± 1.1 MBq injection of the radiotracer. Peripheral samples were dissected and counted, as well as for biodistribution studies. Radioactivity concentration in samples was calculated as %ID/g.

[9] = In vivo stability / radiometabolite analysis in healthy mice (HPLC); settings: 10 minutes after injection
Description: Mice (n = 3) were injected through the tail vein with 3 ± 0.9 MBq of ^11C-VA426 and sacrificed 10 minutes later, under general anaesthesia. Blood was collected by retro-orbital sampling and processed to obtain plasma, as described above. Radioactive species contained in plasma were extracted by mixing an aliquot (500 μL) of plasma with CH3CN solution (1 : 1 v/v). Acetonitrile extracts were centrifuged and supernatant filtered with a MillexGX® syringe system for HPLC (Gilson Italia Srl, 321 pump, UV/VIS-151) injection. For metabolites analysis in liver, a sample was placed in a tissue homogenizer (Potter-Elvehjem) with 2 mL of saline, mechanically sheared until complete homogenization and subsequently treated as described for plasma. HPLC analyses were performed at room temperature using a C18, 250 × 10 mm, 5 μm column, CH3CN/AcONH4 0.05 M (60/40, v/v) as mobile phase, a flow rate of 4.5 mL/min, and UV = 254 nm. Eluted fractions were collected every 30 seconds, for a total of 14 minutes, and counted with a γ-counter (LKB Compugamma CS 1282).

[10] = celecoxib 10 mg/kg i.v. vs vehicle

SMILES: COCCc1cc(-c2ccc(S(C)(=O)=O)cc2)n(-c2ccc(F)cc2)c1C [VA426, 1-(4-fluorophenyl)-3-(2-methoxyethyl)-2-methyl-5-(4-(methylsulfonyl)phenyl)-1H-pyrrole]
- IC50 (COX-2 [1]): 18 nM
- Selectivity Index (IC50 COX-1/IC50 COX-2) (COX-2 [1]): > 5555
- toxic effects [2]: without toxic effects

- time of highest radioactivity concentration in brain ([3]; i.v.): 10 min p.i.
- radioactivity uptake in liver ([3]; i.v., 30 min p.i., n = 3): 0.81 ± 0.28 %ID/g
- change of uptake in intestine after celecoxib pretreatment (COX-2 [4]; [10]): −39%
- change of uptake in kidney after celecoxib pretreatment (COX-2 [4]; [10]): −36%
- change of uptake in liver after celecoxib pretreatment (COX-2 [4]; [10]): −65%
- difference of uptake between vehicle and celecoxib pretreated rats (COX-2 [4]; peripheral tissues and central areas): no significant differences
- difference of concentration in striatum, lesioned hemisphere vs contralateral PBS-injected control (COX-2 [5]; one day after LPS, 10, 30 and 60 minutes): no significant differences
- tracer uptake in contralateral healthy cortex (COX-2 [5]; one day after intrastriatal LPS, 60 min p.i.): 0.087 ± 0.012 %ID/g
- difference between LPS-treated and healthy contralateral hemisphere, all regions (COX-2 [5]; twelve days after LPS injection): no differences were found
- time of maximum radioactivity concentration in all brain regions [6]: 10 minutes after tracer injection
- time of maximum uptake in liver [6]: 10 minutes after injection
- maximum radioactivity concentration in pons ([6]; 10 minutes after injection): 2.69 ± 0.81 %ID/g
- maximum uptake in liver ([6]; 10 minutes after injection): 7.72 ± 2.52 %ID/g
- effect of celecoxib on tracer uptake (%ID/g) in all peripheral regions including plasma (COX-2 [8]): dramatic reduction in tracer uptake
- first radioactive metabolite, fraction of total radioactivity in liver ([9]; healthy mice): 39.8%
- parent compound, fraction of total activity in liver ([9]; healthy mice): 34.9%
- parent compound, fraction of total activity in plasma ([9]; healthy mice): 47.1%
- radioactive metabolite (retention time 3 min), fraction of total radioactivity in plasma ([9]; healthy mice): 45.1%
- radioactive metabolite (retention time 5 min), fraction of total radioactivity in plasma ([9]; healthy mice): 6.6%
- second radioactive metabolite, fraction of total radioactivity in liver ([9]; healthy mice): 21.6%
- third radioactive metabolite (11.5 min of retention time), fraction of total radioactivity in liver ([9]; healthy mice): 3.3%
- radioactivity due to radioactive metabolites ([9]; plasma and liver): over 50%
SMILES: Cc1c(CCO[11CH3])cc(-c2ccc(S(C)(=O)=O)cc2)n1-c1ccc(F)cc1 [^11C-VA426]
- penetration through the BBB ([3]; brain distribution data): good radioactivity penetration through the BBB
- PET radioactivity distribution (COX-2 [7]; healthy mice, 0 to 30 minutes after injection): accumulates rapidly and primarily in the liver and kidneys
- effect of celecoxib pretreatment on PET radioactivity distribution (COX-2 [7]; healthy mouse, celecoxib 10 mg/kg i.v., 10 and 30 minutes): slightly reduced radioactivity distribution in intestine regions
